The record followed here is patent US7476764B2, “Phenylcarboxyamides as beta-secretase inhibitors” (Bristol-Myers Squibb Company, priority 2005, dated 2009).

In general, IC50 refers to the concentration at which inhibition is half-maximal.

The structures appear in SMILES notation. Where a name gives a salt, the structure may show the parent alone.

The target of the first assay is T1, BACE1 enzyme (Homo sapiens, UniProt P56817).
T1 construct: The HEK293-9B.A1 cell line, which overexpresses the BACE1 enzyme, was derived from HEK293 cells; endogenous in cells; washed 48,000 x g pellet of the cell homogenate
T1 sequence (P56817 46-501): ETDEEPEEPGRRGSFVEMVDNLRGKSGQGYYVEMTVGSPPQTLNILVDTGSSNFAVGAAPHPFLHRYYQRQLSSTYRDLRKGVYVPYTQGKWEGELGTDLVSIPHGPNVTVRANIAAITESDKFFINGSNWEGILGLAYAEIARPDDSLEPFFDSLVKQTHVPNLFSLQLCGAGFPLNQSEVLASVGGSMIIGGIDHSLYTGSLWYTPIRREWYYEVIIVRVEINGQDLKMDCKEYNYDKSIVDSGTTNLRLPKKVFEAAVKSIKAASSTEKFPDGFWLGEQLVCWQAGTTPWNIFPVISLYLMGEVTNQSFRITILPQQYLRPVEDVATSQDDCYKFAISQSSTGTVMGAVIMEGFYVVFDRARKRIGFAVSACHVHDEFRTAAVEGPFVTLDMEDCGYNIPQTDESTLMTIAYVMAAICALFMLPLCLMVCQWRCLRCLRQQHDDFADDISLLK
Description: Radioligand displacement assay with a radiolabeled BACE inhibitor on HEK293-9B.A1 cell homogenate. Type of assay: binding.
Conditions: not given
As to the method: Radioligand displacement assays with a radiolabeled BACE inhibitor (WO 2004 013098, compound 3, where the methoxy group is substituted for C(^3H)3) were carried out using standard methods (Keen, M. (1999) in Receptor Binding Techniques (Walker, J. M. ed) p. 106 Humana Press, Totowa, N.J.). The HEK293-9B.A1 cell line, which overexpresses the BACE1 enzyme, was derived from HEK293 cells (Simmons, N. L. (1990) A cultured human renal epitheloid cell line responsive to vasoactive intestinal peptide. Exp. Physiol. 75:309-19.) by RAGE™ (Harrington, J. J. et al. (2001) Creation of genome-wide protein expression libraries using random activation of gene expression. Nat. Biotechnol. 19:440-5; U.S. Pat. Nos. 6,410,266 and 6,361,972). T225 flask cultures of HEK293-9B.A1 were grown to 80% confluency in DMEM supplemented with 2 mM L-glutamine, 10 μg/ml penicillin, 10 μg/ml streptomycin, 3 μg/ml puromycin, 100 nM methotrexate, and 10% fetal bovine serum (Invitrogen, Carlsbad, Calif.), harvested, and resuspended at 2×10^8 cells per 10 ml of lysis buffer consisting of 50 mM HEPES pH 7.0 containing a protease inhibitor cocktail of AEBSF 104 μM, aprotinin 80 nM, leupeptin 2 μM, bestatin 4 μM, pepstatin A 1.5 μM, and E-64 1.4 μM (0.1% of protease inhibitor cocktail P8340, Sigma-Aldrich, St. Louis, Mo.) at 4° C. The resuspended cells were homogenized using a Polytron (Brinkman, Westbury, N.Y.) at setting 6 for 10 sec., then centrifuged at 48,000×g for 10 min. The resulting pellet was washed by repeating the resuspension, homogenization and centrifugation steps. The final pellet was resuspended in buffer at 4° C. to yield a total protein concentration of 5 mg/ml, then aliquots were frozen in liquid nitrogen for further storage at −70° C. Immediately before carrying out a binding assay, an aliquot of cell homogenate was thawed and diluted to a concentration of 100 μg/ml in assay buffer consisting of 50 mM HEPES pH 5.0 and 0.1% CHAPSO. Assays were initiated in polypropylene 96-well plates (Costar, Cambridge, Mass.) by the addition of 200 μl of cell homogenate to 50 μl of assay buffer containing 1 nM radioligand (WO 2004 013098, compound 3, where the methoxy group is substituted for C(^3H)3: 80 Ci/mMol) and various concentrations of unlabelled compounds, and incubated for 1.5 hr. at 25° C. Separation of bound from free radioligand was by filtration on GFF glass fiber filters (Innotech Biosystems International, Lansing, Mich.) using an Innotech cell harvester.
Background: In a radioligand displacement assay an active substance lowers the binding of a labelled ligand.
As to `C=CCO/N=C(/C)c1cc(C(=O)N[C@@H](Cc2cc(F)cc(F)c2)[C@H](O)CNCc2cccc(OC)c2)cc(C(=O)N[C@H](C)c2ccccc2)c1` [Example 46, N^1-((2S,3R)-4-(3-methoxybenzylamino)-1-(3,5-difluorophenyl)-3-hydroxybutan-2-yl)-5-((Z)-1-(allyloxyimino)ethyl)-N^3-((R)-1-phenylethyl)isophthalamide TFA salt], the IC50 was < 100 nM.

The same assay, now with this note: displacement of 1 nM tritiated radioligand, HEK293-9B.A1 homogenate, pH 5.0, 1.5 hr at 25° C.; read-out: Activity Rating (activity based on IC50 values).
As to `COc1cccc(CNC[C@@H](O)[C@H](Cc2cc(F)cc(F)c2)NC(=O)c2cc(C(C)O)cc(N(c3ccccc3)S(C)(=O)=O)c2)c1` (stereo partly drawn) [Example 40, N-((2S,3R)-4-(3-methoxybenzylamino)-1-(3,5-difluorophenyl)-3-hydroxybutan-2-yl)-3-(1-hydroxyethyl)-5-(N-phenylmethan-10-ylsulfonamido)benzamide], the concentration for half-maximal inhibition (IC50) was < 100 nM. Consider `COc1cccc(CNC[C@@H](O)[C@H](Cc2cc(F)cc(F)c2)NC(=O)c2cc(C(=O)NC(C)c3ccc(F)cc3)cc(C(C)O)c2)c1` (stereo partly drawn) [Example 48, N^1-((2S,3R)-4-(3-methoxybenzylamino)-1-(3,5-difluorophenyl)-3-hydroxybutan-2-yl)-N^3-(1-(4-fluorophenyl)ethyl)-5-(1-hydroxyethyl)isophthal-amide TFA salt], for which the IC50 was < 100 nM. Still for that read-out and setting: next, `COc1cccc(CNC[C@@H](O)[C@H](Cc2cc(F)cc(F)c2)NC(=O)c2cc(C(C)=O)cc(C(=O)N[C@H](C)c3ccccc3)c2)c1` [Example 44, N^1-((2S,3R)-4-(3-methoxybenzylamino)-1-(3,5-difluorophenyl)-3-hydroxybutan-2-yl)-5-acetyl-N^3-((R)-1-phenylethyl)isophthalamide TFA salt]: < 100 nM; `CO/N=C(\C)c1cc(C(=O)N[C@@H](Cc2cc(F)cc(F)c2)[C@H](O)CNCc2cccc(OC)c2)cc(S(C)(=O)=O)c1` [Example 17, N-((2S,3R)-4-(3-methoxybenzylamino)-1-(3,5-difluorophenyl)-3-hydroxybutan-2-yl)-3-((E)-1-(methoxyimino)ethyl)-5-(methylsulfonyl)benzamide TFA salt]: 100 to 1000 nM. Still for that read-out and setting: next, `C=CCO/N=C(\C)c1cc(C(=O)N[C@@H](Cc2cc(F)cc(F)c2)[C@H](O)CNCc2cccc(OC)c2)cc(N(C)S(C)(=O)=O)c1` [Example 34, N-((2S,3R)-4-(3-methoxybenzylamino)-1-(3,5-difluorophenyl)-3-hydroxybutan-2-yl)-3-((E)-1-(allyloxyimino)ethyl)-5-(N-methylmethan-2-ylsulfonamido)benzamide TFA salt]: < 100 nM; `C=CCO/N=C(\C)c1cc(C(=O)N[C@@H](Cc2cc(F)cc(F)c2)[C@H](O)CNCc2cccc(OC)c2)cc(C(=O)N(C)CCC)c1` [Example 13, N^1-((2S,3R)-4-(3-methoxybenzylamino)-1-(3,5-difluorophenyl)-3-hydroxybutan-2-yl)-5-((E)-1-(allyloxyimino)ethyl)-N^3-methyl-N^3-propylisophthalamide hydrochloride]: < 100 nM; `C=CCO/N=C(\C)c1cc(C(=O)N[C@@H](Cc2cc(F)cc(F)c2)[C@H](O)CNCc2cccc(OC)c2)cc(C(=O)N(CCC)CCC)c1` [Example 7, N^1-((2S,3R)-4-(3-methoxybenzylamino)-1-(3,5-difluorophenyl)-3-hydroxybutan-2-yl)-5-((E)-1-(allyloxyimino)ethyl)-N^3,N^3-dipropylisophthalamide TFA salt]: < 100 nM. Regarding `CCCN(CCC)C(=O)c1cc(C(=O)N[C@@H](Cc2cc(F)cc(F)c2)[C@H](O)CNCc2cccc(OC)c2)cc(/C(C)=N/O)c1` [Example 5, N^1-((2S,3R)-4-(3-methoxybenzylamino)-1-(3,5-difluorophenyl)-3-hydroxybutan-2-yl)-5-((E)-1-(hydroxyimino)ethyl)-N^3,N^3-dipropylisophthalamide hydrochloride], the IC50 is < 100 nM. Still for that read-out and setting: next, `COc1cccc(CNC[C@@H](O)[C@H](Cc2cc(F)cc(F)c2)NC(=O)c2cc(/C(C)=N/OCC(C)C)cc(S(C)(=O)=O)c2)c1` [Example 20, N-((2S,3R)-4-(3-methoxybenzylamino)-1-(3,5-difluorophenyl)-3-hydroxybutan-2-yl)-3-((E)-1-(isobutoxyimino)ethyl)-5-(methylsulfonyl)benzamide TFA salt]: > 1000 nM; `COc1cccc(CNC[C@@H](O)[C@H](Cc2cc(F)cc(F)c2)NC(=O)c2cc(/C(C)=N/OCc3ccccc3)cc(N(C)S(C)(=O)=O)c2)c1` [Example 31, N-((2S,3R)-4-(3-methoxybenzylamino)-1-(3,5-difluorophenyl)-3-hydroxybutan-2-yl)-3-((E)-1-(benzyloxyimino)ethyl)-5-(N-methylmethan-2-ylsulfonamido)benzamide TFA salt]: < 100 nM; `CCCO/N=C(\C)c1cc(C(=O)N[C@@H](Cc2cc(F)cc(F)c2)[C@H](O)CNCc2cccc(OC)c2)cc(N(C)S(C)(=O)=O)c1` [Example 32, N-((2S,3R)-4-(3-methoxybenzylamino)-1-(3,5-difluorophenyl)-3-hydroxybutan-2-yl)-3-((E)-1-(propoxyimino)ethyl)-5-(N-methylmethan-2-ylsulfonamido)benzamide TFA salt]: 100 to 1000 nM. As to `COc1cccc(CNC[C@@H](O)[C@H](Cc2cc(F)cc(F)c2)NC(=O)c2cc(/C(C)=N/OCC(C)C)cc(N(c3ccccc3)S(C)(=O)=O)c2)c1` [Example 41, N-((2S,3R)-4-(3-methoxybenzylamino)-1-(3,5-difluorophenyl)-3-hydroxybutan-2-yl)-3-((E)-1-(isobutoxyimino)ethyl)-5-(N-phenylmethan-10-ylsulfonamido)benzamide], the half-inhibitory concentration (IC50) was in the range of 100 to 1000 nM. For `CCCN(CCC)C(=O)c1cc(C(=O)N[C@@H](Cc2cc(F)cc(F)c2)[C@H](O)CNCc2cccc(OC)c2)cc(/C(C)=N/OCC(C)C)c1` [Example 6, N^1-((2S,3R)-4-(3-methoxybenzylamino)-1-(3,5-difluorophenyl)-3-hydroxybutan-2-yl)-5-((E)-1-(isobutoxyimino)ethyl)-N^3,N^3-dipropylisophthalamide TFA salt], the IC50 is < 100 nM.
